Test results taken from ChEMBL document CHEMBL1201862, “PubChem BioAssay data set” (2004).
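Where inhibition never reached the appropriate level, the endpoint shown equals the highest concentration tested. Otherwise, values were interpolated linearly from a five-concentration, 48-hour dose response in 96-well plates. Here, GI50 denotes the concentration required for 50% inhibition of growth.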 Activity calls are given as the source filed them. No stated cut-off is given here; in the data, active = GI50 up to about 1.1 µM and inactive = higher.

Assays:
Assay in all cases: inhibition of tumour cell growth, NCI panel, 48 h
[1] = system: NCI-H460
[2] = system: HL-60
[3] = system: MOLT-4
[4] = system: EKVX
[5] = system: SN12C
[6] = system: HOP-62
[7] = system: PC-3
[8] = system: RPMI-8226
[9] = system: SF-539
[10] = system: BT-549
[11] = system: HCT-116
[12] = system: UACC-257
[13] = system: HCC 2998
[14] = system: ACHN
[15] = system: SK-MEL-28
[16] = system: HCT-15
[17] = system: CAKI-1
[18] = system: T47D
[19] = system: Hs-578T
[20] = system: MCF7

Row | SMILES | GI50 [1] | GI50 [2] | GI50 [3] | GI50 [4] | GI50 [5] | GI50 [6] | GI50 [7] | GI50 [8] | GI50 [9] | GI50 [10] | GI50 [11] | GI50 [12] | GI50 [13] | GI50 [14] | GI50 [15] | GI50 [16] | GI50 [17] | GI50 [18] | GI50 [19] | GI50 [20]
1 | CN(C)CCn1c(=O)c2ccc3c4c(nn3CCN(C)C)c3cc(O)ccc3n(c1=O)c24 | < 0.0411 µM (active) | 0.0419 µM (active) | < 0.01 µM (active) | 0.124 µM (active) | 0.0148 µM (active) | < 0.0316 µM (active) | 0.0659 µM (active) | 0.0541 µM (active) | 1.29 µM (inactive) | 0.879 µM (active) | < 0.0225 µM (active) | 0.308 µM (active) | < 0.0493 µM (active) | < 0.0308 µM (active) | 0.548 µM (active) | 0.147 µM | 0.0501 µM (active) | 0.378 µM (active) | – | –
2 | Cc1ccc(N/C(SCc2ccccc2)=C(\C(Cl)=C(Cl)Cl)[N+](=O)[O-])c(C)c1 | 41.7 µM (inactive) | – | > 100 µM (inactive) | 33.4 µM (inactive) | 20.4 µM (inactive) | 8.13 µM (inactive) | 37.2 µM (inactive) | 21.1 µM (inactive) | 19.9 µM (inactive) | 19.2 µM (inactive) | 16.8 µM (inactive) | 43.9 µM (inactive) | 45.6 µM (inactive) | 43 µM (inactive) | 23.8 µM (inactive) | 17.7 µM | 18.6 µM (inactive) | 18.1 µM (inactive) | 39.1 µM (inactive) | 35.3 µM (inactive)
3 | O=C1N2CCc3c([nH]c4ccccc34)C23CC2CCCCC12S3 (stereo unspecified) | – | 95.5 µM (inactive) | 24.7 µM (inactive) | > 100 µM (inactive) | > 100 µM (inactive) | > 100 µM (inactive) | > 100 µM (inactive) | 48.8 µM (inactive) | > 100 µM (inactive) | > 100 µM (inactive) | > 100 µM (inactive) | 18.5 µM (inactive) | – | > 100 µM (inactive) | > 100 µM (inactive) | > 100 µM | > 100 µM (inactive) | > 100 µM (inactive) | > 100 µM (inactive) | 39.4 µM (inactive)
4 | NCCc1nc(-c2nc(C(=O)O)cs2)cs1 | > 100 µM (inactive) | > 100 µM (inactive) | > 100 µM (inactive) | > 100 µM (inactive) | > 100 µM (inactive) | > 100 µM (inactive) | > 100 µM (inactive) | > 100 µM (inactive) | > 100 µM (inactive) | > 100 µM (inactive) | > 100 µM (inactive) | > 100 µM (inactive) | – | > 100 µM (inactive) | > 100 µM (inactive) | > 100 µM | > 100 µM (inactive) | > 100 µM (inactive) | > 100 µM (inactive) | > 100 µM (inactive)
5 | COC1/C=C/C(C)C(C(C)C(OC)C(C)CCC(=O)C(C)C(C/C=C/N(C)C=O)OC)OC(=O)C=CC2OC2(C)CC(OC)C(OC)C2=CC(=O)O[C@@H](C(C)C(OC)CC(OC)/C=C/C(C)C(O)C1)[C@H]2O (stereo partly specified) | 0.00607 µM (active) | 0.0109 µM (active) | 0.00527 µM (active) | 0.00562 µM (active) | 0.00593 µM (active) | 0.00497 µM (active) | 0.00609 µM (active) | 0.00841 µM (active) | 0.0037 µM (active) | 0.0214 µM (active) | 0.000528 µM (active) | 0.0105 µM (active) | 0.00569 µM (active) | 0.00313 µM (active) | 0.00869 µM (active) | 0.00631 µM | 0.00267 µM (active) | – | 0.00448 µM (active) | 0.00627 µM (active)
6 | COc1ccn(CC(=O)c2cc3ccccc3[nH]2)c(=O)n1 | > 100 µM (inactive) | 39.2 µM (inactive) | > 100 µM (inactive) | > 100 µM (inactive) | > 100 µM (inactive) | > 100 µM (inactive) | > 100 µM (inactive) | > 100 µM (inactive) | > 100 µM (inactive) | > 100 µM (inactive) | > 100 µM (inactive) | > 100 µM (inactive) | > 100 µM (inactive) | > 100 µM (inactive) | > 100 µM (inactive) | > 100 µM | > 100 µM (inactive) | > 100 µM (inactive) | – | > 100 µM (inactive)
7 | CC12CC(c3ccccc3O1)C(C(=O)Nc1nccs1)C(=O)N2 (stereo unspecified) | > 100 µM (inactive) | > 100 µM (inactive) | > 100 µM (inactive) | 35.7 µM (inactive) | – | > 100 µM (inactive) | > 100 µM (inactive) | 98.4 µM (inactive) | – | > 100 µM (inactive) | > 100 µM (inactive) | > 100 µM (inactive) | > 100 µM (inactive) | > 100 µM (inactive) | 40.5 µM (inactive) | > 100 µM | > 100 µM (inactive) | – | > 100 µM (inactive) | > 100 µM (inactive)
8 | O=C1c2sc(-c3ccc(Cl)cc3)cc2-n2cccc21 | > 100 µM (inactive) | – | > 100 µM (inactive) | > 100 µM (inactive) | > 100 µM (inactive) | > 100 µM (inactive) | > 100 µM (inactive) | > 100 µM (inactive) | – | > 100 µM (inactive) | > 100 µM (inactive) | > 100 µM (inactive) | > 100 µM (inactive) | > 100 µM (inactive) | > 100 µM (inactive) | > 100 µM | > 100 µM (inactive) | > 100 µM (inactive) | > 100 µM (inactive) | > 100 µM (inactive)
9 | Cc1cccc(Nc2cn(COCc3ccccc3)c(=O)[nH]c2=O)c1 | > 100 µM (inactive) | > 100 µM (inactive) | > 100 µM (inactive) | 15.3 µM (inactive) | > 100 µM (inactive) | 20.8 µM (inactive) | > 100 µM (inactive) | 38.8 µM (inactive) | – | 69.2 µM (inactive) | 90.8 µM (inactive) | > 100 µM (inactive) | > 100 µM (inactive) | > 100 µM (inactive) | > 100 µM (inactive) | > 100 µM | > 100 µM (inactive) | – | 49.3 µM (inactive) | 72.6 µM (inactive)
10 | CCCCCCCCCCCCC(O)C1CCC(C(O)CCCCC(O)CCCCCC2CC(CC(C)=O)C(=O)O2)O1 (stereo unspecified) | 3.77 µM (inactive) | – | – | 3.25 µM (inactive) | 4.83 µM (inactive) | 4.58 µM (inactive) | 1.68 µM (inactive) | – | 3.9 µM (inactive) | 2.79 µM (inactive) | 0.175 µM (active) | 0.0204 µM (active) | 8.18 µM (inactive) | 7.85 µM (inactive) | 4.7 µM (inactive) | 3.35 µM | 8.87 µM (inactive) | 2.77 µM (inactive) | 1.69 µM (inactive) | 1.01 µM (active)
11 | CCCCCCCCCC[C@@H](O)[C@H]1CC[C@@H]([C@H]2CC[C@H]([C@H](O)CCCCCCCCCC[C@@H]3CC(CC(C)=O)C(=O)O3)O2)O1 (stereo partly specified) | 0.147 µM (active) | – | 4.13 µM (inactive) | 0.372 µM (active) | 2.17 µM (inactive) | 7.55 µM (inactive) | 4.05 µM (inactive) | 2.39 µM (inactive) | 7.05 µM (inactive) | 2.48 µM (inactive) | 2.68 µM (inactive) | 2.14 µM (inactive) | 19.1 µM (inactive) | 1.17 µM (inactive) | 3.46 µM (inactive) | 5.12 µM | 31 µM (inactive) | 1.7 µM (inactive) | 1.04 µM (active) | 1.31 µM (inactive)
